Assay results: patent publication US9664676B2, “RNA sequences that induce fluorescence of small molecule fluorophores” (Cornell University, priority 2013, dated 2017)

B1: tBroccoli: Broccoli with tRNA scaffold, SEQ ID NO: 38 (nucleic acid)
chain: GCCCGGATAGCTCAGTCGGTAGAGCAGCGGAGACGGTCGGGTCCAGATATTCGTATCTGTCGAGTAGAGTGTGGGCTCCGCGGGTCCAGGGTTCAAGTCCCTGTTCGGGCGCCA
modifications: chemistry not given here

Key:
[1] = Folding measurements with DFHBI-1T; type: physicochemical; details: for percent folded: in vitro folding assay
Protocol: Briefly, fluorescence intensity of two solutions were compared: the one having excess of the dye and limiting amount of RNA and the other with excess of RNA and limiting amount of the dye. 1 μM of 1T (or RNA) and 20 μM of RNA (or 1T) was used. Signal from the first condition (limiting RNA) was divided by the signal from the second condition (limiting dye) to determine the fraction folded. To measure folding in a context of different flanking sequences RNA was generated from separate dsDNA fragments. These fragments were PCR amplified to have β-actin, 5S rRNA and 7SK RNA sequences on either or both sides of Broccoli. The folding assay then proceeded as described above.
(§1) To measure the fluorescence of aptamer-fluorophore complexes, an approach that overcomes potential confounding effects of incomplete RNA folding was used. The fluorescence of RNA-fluorophore complexes can be measured in either of two ways: using “excess RNA” or “excess fluorophore” (Ponchon et al., “Recombinant RNA Technology: the tRNA Scaffold,” Nat. Methods 4(7): 571-6 (2007), which is hereby incorporated by reference in its entirety). In an “excess RNA” experiment enough RNA was added to ensure that all the fluorophore (e.g. 1 μM) is bound to the RNA even if a sizeable portion of the RNA is unfolded. As a result, one can be confident that a 1 μM RNA-fluorophore complex is present, and one can therefore calculate the “molar brightness,” the fluorescence of a specific concentration of RNA-fluorophore complex independent of RNA folding. In the case of excess fluorophore experimental conditions were reversed and 1 μM of RNA was used with a vast excess of the fluorophore. In this case, the amount of RNA-fluorophore complex is highly dependent on the amount of RNA that is folded.

[2] = In vitro fluorescence activation of DFHBI-1T by 29-1 and truncation mutants; type: biochemical; details: excess RNA conditions
Source text: In Vitro Characterization of Aptamers: dsDNA from the brightest bacterial cells in a library was PCR amplified from eluted plasmids. Truncation, deletion and point mutation mutants were generated from dsDNAs PCR amplified based on respective ssDNA templates (Protein and Nucleic Acid Facility, Stanford University Medical Center). Primers were designed so the PCR product contained T7 promoter sequence. When indicated, dsDNA or ssDNA also contained tRNA scaffold part. PCR products were then purified with PCR purification columns (Qiagen) and in vitro transcribed utilizing AmpliScribe T7-Flash Transcription Kit (Epicenter). RNA was purified using Bio-Spin columns (Bio-Rad), and quantified using both absorbance values and the Quant-iT RiboGreen RNA Assay Kit (Life Technologies).
All in vitro RNA properties were measured in 40 mM HEPES pH 7.4, 100 mM KCl, 1 mM MgCl2 buffer unless specified separately. All values presented are averaging of at least three independent experiments, error bars are standard deviations.
as §1

E. coli = test: Fluorescence measurements of E. coli (colonies, suspensions) expressing aptamers with DFHBI-1T; type: cell-based, Escherichia coli
Protocol: Fluorescence Measurements of E. coli: Fluorescence measurements of E. coli were done in two general ways. To assess fluorescence brightness of bacterial colonies on a plate Acella or LMG194 strains cells were transferred to a new LB/agar dish with respective antibiotic and allowed to grow overnight at 37° C. Typically four to six colonies for the same aptamer were grown on the same plate to provide statistical data. These plates already contained 40 μM DFHBI-1T (or DFHBI) and 0.2% arabinose (in case of LMG194 strain). When Acella strain was used, 1 mM IPTG was added the next morning and incubation was continued for four to six hours more at 37° C. Bacterial colonies were then imaged under ChemiDoc MP imager as described above and images were processed in ImageJ program.
To measure fluorescence of bacterial cell suspensions BL21 Star (DE3) (Life Technologies) strain and pET28c-based expression plasmids were used. This combination provided the strongest signal. Fresh colony was inoculated into LB media with kanamycin and allowed to grow overnight at 37° C. to OD600 0.4. The cells were then induced with addition of 1 mM IPTG for 2-4 h at 37° C. After induction, cells were normalized for cell density and incubated with 400 μM DFHBI-1T. Cells were then measured for total fluorescence using a Genios Pro plate reader at 465 nm excitation and 535 nm emission. All values were normalized for slightly different excitation and emission spectra of Spinach2 and Broccoli.

[3] = Magnesium dependence of aptamer fluorescence; type: physicochemical; details: MgCl2 titration
Protocol: To measure magnesium dependence 1 μM RNA was incubated with 10 μM 1T in 40 mM HEPES pH 7.4, 100 mM KCl buffer with different concentrations of MgCl2 and then fluorescence emission was measured on a plate reader.

HEK293T cells = test: Flow cytometry of HEK293T cells expressing 5S rRNA-aptamer fusions with DFHBI-1T; type: cell-based; details: flow cytometry
Protocol: FIG. 24 illustrates the quantification of the flow cytometry analysis of aptamers expression in mammalian cells. To compare specific aptamers' brightness in mammalian cells, HEK293T cells were transfected with two plasmids: one expressing aptamer (with or without tRNA) fused to 5S rRNA and another expressing mCherry fluorescent protein. Cells were then treated with 40 μM DFHBI-1T and analyzed on FACSAria III instrument in two channels: green (ex=488 nm; em=525±50 nm) and red (ex=561 nm and em=610±20). For quantification, mean fluorescent signal of the non-negative population was calculated and then mean fluorescent signal of the negative population was subtracted from it to assess specific, not background fluorescent signal. Finally, this number was multiplied by the percentage of the non-negative population to provide the total fluorescent signal of the non-negative population. These numbers are plotted on the bar graph above. Where indicated, cells were also pre-treated with 5 mM MgSO4. Error bar indicates robust SD calculated by FlowJo program, used for data analysis.
Imaging 5S-tBroccoli and 5S-t-tdBroccoli: Plasmids were transfected into HEK293T cell using FuGENE HD reagent (Promega) following manufacture's protocol. Cell imaging was carried out as previously described for 5S-Spinach (Paige et al., “RNA Mimics of Green Fluorescent Protein,” Science 333(6042): 642-6 (2011), which is hereby incorporated by reference in its entirety) with DFHBI-1T instead of DFHBI. […]
Flow cytometry was used to quantify average brightness of tRNA. Transfected cells were analyzed in two channels: green (ex=488 nm; em=525±50 nm) and red (ex=561 nm; em=610±20). […] As evidenced from FIG. 14A, 5S-tBroccoli and 5S-tdBroccoli are clearly detectable in the green fluorescence channel and this specific signal appears only upon cells treatment with DFHBI-1T (FIG. 23).

Molecule	percent folded [1] [%]	ability to induce DFHBI-1T fluorescence [2]	ability to induce DFHBI-1T fluorescence ([2]; listed as T2)	colony fluorescence compared to 29-1 (E. coli; E. coli colonies on LB-DFHBI-1T agar, tRNA scaffold)	folding relative to 29-1 ([1]; in vitro) [%]	magnesium concentration giving maximal fluorescence [3] [µM]	fluorescence of aptamer-expressing E. coli cells (E. coli; tRNA fusions, suspension/plate reader, DFHBI-1T)	detection in HEK293T cells of 5S fusions without tRNA scaffold (HEK293T cells)	increase of E. coli fluorescence with 20 mM MgCl2 (E. coli; LB media with versus without 20 mM MgCl2, after 1 hr) [%]
29-1-T2: 56-nucleotide truncation of 29-1, SEQ ID NO: 4 (GAGACGGUCGGGUCCAGCACAAAAAUGUUGCUGUUGAGUAGAGUGUGGGCUC; listed as RNA, chemistry not given here)	45	retained the ability to induce DFHBI-1T fluorescence	able to induce fluorescence of DFHBI-1T	significantly less bright than colonies expressing 29-1	–	–	–	–	–
Broccoli: 49 nt RNA aptamer, SEQ ID NO: 75; 29-1-3-1 designated Broccoli (GAGACGGUCGGGUCCAGAUAUUCGUAUCUGUCGAGUAGAGUGUGGGCUC; further chemistry not given here)	–	–	–	–	80	~300	more than twice as fluorescent as Spinach2-expressing cells	can be detected in cells	–
B1	~60	–	–	–	–	–	–	–	36
